The results in this text go back to patent publication US12139492B2 (Endotarget Inc., priority 2021, dated 2024).

Each structure is given as a SMILES string. Where two headings read alike, the source gives them in different places.

Assay [1] relates to Mino cells. Put plainly: Antiproliferative effect, MTS cell viability assay, Mino cells. It counts as cell-based. The settings on record: Homo sapiens, Mino mantle cell lymphoma cells, read-out: IC50 (anti-proliferation) Mino cells. The method, boiled down:
(§1)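 Absorbance at 490 nm of formazan, formed by metabolically active cells from MTS tetrazolium, served as the viability measure after a 72 h treatment across a 0.001–10 μM concentration series plus untreated control.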

Assay [2] deals with JeKo-1 cells. Put plainly: Antiproliferative effect, MTS cell viability assay, JeKo-1 cells. The class given is cell-based. Conditions: Homo sapiens; JeKo-1 mantle cell lymphoma cells; read-out: IC50 (anti-proliferation) JeKO-1 cells. The method, boiled down: as §1
Assay [3] deals with BTK (Homo sapiens, UniProt Q06187). Put plainly: Degradation of BTK protein in Namalwa cells (Western blot; DC50, Dmax). Conditions: for degradation of BTK protein: Namalwa B lymphocyte cells, various concentrations, 24 hours, Western blot; for DC50: read-out: DC50 (BTK degradation), concentration giving 50% reduction of BTK expression level, cell line not given; for Dmax: read-out: Dmax (BTK degradation). A general note: Immunoblotting shows a protein as a band on a membrane.
Chain of BTK (Q06187 whole entry): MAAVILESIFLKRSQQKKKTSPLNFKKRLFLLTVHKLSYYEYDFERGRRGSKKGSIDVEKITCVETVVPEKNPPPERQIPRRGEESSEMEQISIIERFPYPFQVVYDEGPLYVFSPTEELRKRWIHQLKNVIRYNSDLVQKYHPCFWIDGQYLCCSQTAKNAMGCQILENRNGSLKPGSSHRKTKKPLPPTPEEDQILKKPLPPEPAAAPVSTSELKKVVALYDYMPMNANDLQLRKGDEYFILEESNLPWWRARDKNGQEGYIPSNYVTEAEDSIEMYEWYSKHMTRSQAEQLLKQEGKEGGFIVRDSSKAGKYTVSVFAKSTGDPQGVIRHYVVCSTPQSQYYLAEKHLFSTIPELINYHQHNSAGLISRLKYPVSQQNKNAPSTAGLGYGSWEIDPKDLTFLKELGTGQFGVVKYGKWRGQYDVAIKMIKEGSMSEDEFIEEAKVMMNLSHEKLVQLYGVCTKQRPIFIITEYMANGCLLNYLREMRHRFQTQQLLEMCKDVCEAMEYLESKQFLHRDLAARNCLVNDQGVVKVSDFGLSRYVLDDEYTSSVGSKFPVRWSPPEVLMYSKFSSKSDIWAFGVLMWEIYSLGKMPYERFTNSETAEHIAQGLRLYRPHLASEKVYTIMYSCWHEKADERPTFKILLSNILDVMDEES

On to `Nc1ncnc2c1c(-c1ccc(Oc3ccccc3)cc1)nn2C1CCN(CC2CN(CC3CCN(c4ccc5c(c4)C(=O)N(C4CCC(=O)NC4=O)C5=O)C3)C2)CC1` (stereo not drawn) [Compound 443, 5-(3-((3-((4-(4-amino-3-(4-phenoxyphenyl)-1H-pyrazolo(3,4-d)pyrimidin-1-yl)piperidin-1-yl)methyl)azetidin-1-yl)methyl)pyrrolidin-1-yl)-2-(2,6-dioxopiperidin-3-yl)isoindoline-1,3-dione], for which the IC50 in assay [1] (MINO) was below 1000 nM. In addition, the IC50 in assay [2] is below 1000 nM. In assay [3], the “degradation of BTK protein” value was “dose-dependent degradation”, the DC50 was below 10 nM and the Dmax was above 90%.
As for `Nc1ncnc2c1c(-c1ccc(Oc3ccccc3)cc1)nn2C1CCN(CC2CN(C[C@H]3CCN(c4ccc5c(c4)C(=O)N(C4CCC(=O)NC4=O)C5=O)C3)C2)CC1` (stereo partly drawn) [Compound 443a, 5-((R)-3-((3-((4-(4-amino-3-(4-phenoxyphenyl)-1H-pyrazolo[3,4-d]pyrimidin-1-yl)piperidin-1-yl)methyl)azetidin-1-yl)methyl)pyrrolidin-1-yl)-2-(2,6-dioxopiperidin-3-yl)isoindoline-1,3-dione], in assay [1] (MINO), the IC50 is below 1000 nM. Also, the IC50 in assay [2] was below 1000 nM. In addition, in assay [3], the DC50 was below 10 nM and the Dmax is above 90%.
In the case of `Nc1ncnc2c1c(-c1ccc(Oc3ccccc3)cc1)nn2C1CCN(CC2CN(C[C@@H]3CCN(c4ccc5c(c4)C(=O)N(C4CCC(=O)NC4=O)C5=O)C3)C2)CC1` (stereo partly drawn) [Compound 443b, 5-((S)-3-((3-((4-(4-amino-3-(4-phenoxyphenyl)-1H-pyrazolo[3,4-d]pyrimidin-1-yl)piperidin-1-yl)methyl)azetidin-1-yl)methyl)pyrrolidin-1-yl)-2-(2,6-dioxopiperidin-3-yl)isoindoline-1,3-dione], the IC50 in assay [1] (MINO) is below 1000 nM. In addition, the IC50 in assay [2] is below 1000 nM. Besides, in assay [3], the half-maximal degradation concentration (DC50) was below 10 nM and the Dmax was above 90%.
`Nc1ncnc2c1c(-c1ccc(Oc3ccccc3)cc1)nn2C1CCN(CC2CN(CC3CCN(c4ccc5c(c4)CN(C4CCC(=O)NC4=O)C5=O)C3)C2)CC1` (stereo not drawn) [Compound 444, 3-(5-(3-((3-((4-(4-amino-3-(4-phenoxyphenyl)-1H-pyrazolo[3,4-d]pyrimidin-1-yl)piperidin-1-yl)methyl)azetidin-1-yl)methyl)pyrrolidin-1-yl)-1-oxoisoindolin-2-yl)piperidine-2,6-dione]: the IC50 in assay [1] (MINO) and in assay [2] was below 1000 nM each time. Further, the DC50 in assay [3] is below 10 nM. In addition, the Dmax in assay [3] was above 90%.
With `Nc1ncnc2c1c(-c1ccc(Oc3ccccc3)cc1)nn2C1CCN(CC2CCN(CC3CCN(c4ccc5c(c4)C(=O)N(C4CCC(=O)NC4=O)C5=O)CC3)C2)CC1` (stereo not drawn) [Compound 445, 5-(4-((3-((4-(4-amino-3-(4-phenoxyphenyl)-1H-pyrazolo(3,4-d)pyrimidin-1-yl)piperidin-1-yl)methyl)pyrrolidin-1-yl)methyl)piperidin-1-yl)-2-(2,6-dioxopiperidin-3-yl)isoindoline-1,3-dione], in assay [1] (MINO), the IC50 was 1000 to 10000 nM. In addition, the IC50 in assay [2] lay within 1000 to 10000 nM. In assay [3], the “degradation of BTK protein” value was “dose-dependent degradation”, the DC50 was 10 to 50 nM and the Dmax is above 90%.
On to `Nc1ncnc2c1c(-c1ccc(Oc3ccccc3)cc1)nn2C1CCN(C[C@H]2CCN(CC3CCN(c4ccc5c(c4)C(=O)N(C4CCC(=O)NC4=O)C5=O)CC3)C2)CC1` (stereo partly drawn) [Compound 445a, 5-(4-(((R)-3-((4-(4-amino-3-(4-phenoxyphenyl)-1H-pyrazolo[3,4-d]pyrimidin-1-yl)piperidin-1-yl)methyl)pyrrolidin-1-yl)methyl)piperidin-1-yl)-2-(2,6-dioxopiperidin-3-yl)isoindoline-1,3-dione], for which, in assay [1] (MINO), the IC50 was in the range of 1000 to 10000 nM. The IC50 in assay [2] lay in the range of 1000 to 10000 nM. In addition, in assay [3], the DC50 was in the range of 10 to 50 nM and the Dmax is above 90%.
Take `Nc1ncnc2c1c(-c1ccc(Oc3ccccc3)cc1)nn2C1CCN(C[C@@H]2CCN(CC3CCN(c4ccc5c(c4)C(=O)N(C4CCC(=O)NC4=O)C5=O)CC3)C2)CC1` (stereo partly drawn) [Compound 445b, 5-(4-(((S)-3-((4-(4-amino-3-(4-phenoxyphenyl)-1H-pyrazolo[3,4-d]pyrimidin-1-yl)piperidin-1-yl)methyl)pyrrolidin-1-yl)methyl)piperidin-1-yl)-2-(2,6-dioxopiperidin-3-yl)isoindoline-1,3-dione]: the IC50 in assay [1] (MINO) fell in the range of 1000 to 10000 nM. For the same compound, the IC50 in assay [2] fell in the range of 1000 to 10000 nM. In addition, in assay [3], the DC50 lay in the range of 10 to 50 nM and the Dmax was above 90%.
Take `Nc1ncnc2c1c(-c1ccc(Oc3ccccc3)cc1)nn2C1CCN(CC2CCN(CC3CCN(c4ccc5c(c4)CN(C4CCC(=O)NC4=O)C5=O)CC3)C2)CC1` (stereo not drawn) [Compound 446, 3-(5-(4-((3-((4-(4-amino-3-(4-phenoxyphenyl)-1H-pyrazolo(3,4-d)pyrimidin-1-yl)piperidin-1-yl)methyl)pyrrolidin-1-yl)methyl)piperidin-1-yl)-1-oxoisoindolin-2-yl)piperidine-2,6-dione]: in assay [1], the IC50 was 1000 to 10000 nM. Besides, the IC50 in assay [2] was in the range of 1000 to 10000 nM. Moreover, in assay [3], the “degradation of BTK protein” value is recorded as “dose-dependent degradation”, the DC50 is 10 to 50 nM and the Dmax is above 90%.
Regarding `Nc1ncnc2c1c(-c1ccc(Oc3ccccc3)cc1)nn2C1CCN(C[C@H]2CCN(CC3CCN(c4ccc5c(c4)CN(C4CCC(=O)NC4=O)C5=O)CC3)C2)CC1` (stereo partly drawn) [Compound 446a, 3-(5-(4-(((R)-3-((4-(4-amino-3-(4-phenoxyphenyl)-1H-pyrazolo[3,4-d]pyrimidin-1-yl)piperidin-1-yl)methyl)pyrrolidin-1-yl)methyl)piperidin-1-yl)-1-oxoisoindolin-2-yl)piperidine-2,6-dione], the IC50 in assay [1] (MINO) lay in the range of 1000 to 10000 nM. The IC50 in assay [2] was in the range of 1000 to 10000 nM. Also, in assay [3], the DC50 lay in the range of 10 to 50 nM and the Dmax was above 90%.
With `Nc1ncnc2c1c(-c1ccc(Oc3ccccc3)cc1)nn2C1CCN(C[C@@H]2CCN(CC3CCN(c4ccc5c(c4)CN(C4CCC(=O)NC4=O)C5=O)CC3)C2)CC1` (stereo partly drawn) [Compound 446b, 3-(5-(4-(((S)-3-((4-(4-amino-3-(4-phenoxyphenyl)-1H-pyrazolo[3,4-d]pyrimidin-1-yl)piperidin-1-yl)methyl)pyrrolidin-1-yl)methyl)piperidin-1-yl)-1-oxoisoindolin-2-yl)piperidine-2,6-dione], the IC50 in assay [1] (MINO) is below 1000 nM. Further, the IC50 in assay [2] is 1000 to 10000 nM. In assay [3], the half-maximal degradation concentration (DC50) lay within 10 to 50 nM and the Dmax was above 90%.
For the compound `Nc1ncnc2c1c(-c1ccc(Oc3ccccc3)cc1)nn2C1CCN(CC2CCN(CC3CCN(c4ccc5c(c4)C(=O)N(C4CCC(=O)NC4=O)C5=O)C3)C2)CC1` (stereo not drawn) [Compound 447, 5-(3-((3-((4-(4-amino-3-(4-phenoxyphenyl)-1H-pyrazolo(3,4-d)pyrimidin-1-yl)piperidin-1-yl)methyl)pyrrolidin-1-yl)methyl)pyrrolidin-1-yl)-2-(2,6-dioxopiperidin-3-yl)isoindoline-1,3-dione], the IC50 in assay [1] (MINO) is 1000 to 10000 nM. Besides, the IC50 in assay [2] lay in the range of 1000 to 10000 nM. Also, in assay [3], the “degradation of BTK protein” value was “dose-dependent degradation”, the DC50 fell in the range of 10 to 50 nM and the Dmax is above 90%.

Broadly, the DC50 is the concentration at which degradation of the target reaches its halfway point. As usually defined, the Dmax is the greatest extent of degradation seen.
